Target: T1, GPR119 receptor (UniProt Q8TDV5, S309L, species not given)
T1 sequence (Q8TDV5 1-335 S309L): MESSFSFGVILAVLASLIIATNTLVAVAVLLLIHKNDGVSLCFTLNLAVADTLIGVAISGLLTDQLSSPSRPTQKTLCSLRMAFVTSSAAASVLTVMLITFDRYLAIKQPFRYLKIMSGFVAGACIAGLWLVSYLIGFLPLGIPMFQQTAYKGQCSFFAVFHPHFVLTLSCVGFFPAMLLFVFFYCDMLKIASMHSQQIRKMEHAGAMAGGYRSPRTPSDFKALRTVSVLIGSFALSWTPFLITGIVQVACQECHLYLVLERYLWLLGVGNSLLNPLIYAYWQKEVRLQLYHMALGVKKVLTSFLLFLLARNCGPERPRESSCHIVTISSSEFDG
Assay: GPR119 signaling, cyclic AMP (cAMP) homogenous time resolved fluorescence (HTRF) assay
Format: cell-based
Details: CHO cells with Gα15 and murine GPR119, or HEK293 Flp-In cells with human GPR119 S309L; table does not say which; read-out: Activity: inflection points, denoted as EC50 values (agonist activation of GPR119, cAMP)
Description: Measurement of GPR119 Signaling Using a Cyclic AMP (cAMP) Homogenous Time Resolved Fluorescence (HTRF) Assay
Chinese hamster ovary (CHO) cell lines stably transfected with the permissive guanine nucleotide binding protein alpha 15 (Gα15) and […] GPR119 were maintained in DMEM media containing FBS, penicillin-streptomycin, puromycin, and G418 (geneticin). Alternatively, human embryonic kidney (HEK)293 Flp-In cells (Invitrogen, Carlsbad, Calif.) were stably transfected with a human SNP variant (S309L) of GPR119 and maintained in DMEM media containing FBS, penicillin-streptomycin, and hygromycin. Agonist activation of the GPR119 receptor was measured in receptor transfected cells described above, treated with compounds of this invention, using a commercial homogenous time resolved fluorescence (HTRF) kit for measurement of cAMP (CisBio, Bedford, Mass.). The assay was performed in 96-well half-volume plates (murine) or 384-well plates (human) following the manufacturers instructions. Briefly, suspended cells were incubated with a dose titration of test compound at room temperature for 60 min, lysed, and incubated with HTRF reagents for an additional 60 min. The plate was read using an Envision multilabel reader (Perkin Elmer) adjusted to read time resolved fluorescence and the cAMP concentrations were extrapolated from a cAMP calibration curve. […] The concentration of test compound required to stimulate a half-maximal response (EC50), and efficacy as compared to an internal agonist control, was determined from a sigmoidal 4-parameter curve fit of the resulting plot of normalized activity versus compound concentration.

SMILES	EC50
Fc1cnc(N2CCC(C3CC3CCOc3ccc(-n4cnnn4)c(F)c3)CC2)nc1 (racemic) [Ex 30d]	< 10 nM
Cc1nc(C#N)cc(OCC[C@@H]2C[C@@H]2C2CCN(c3ncc(Cl)c(C)n3)CC2)n1 (racemic) [Ex 42, Rac-cis-6-(2-{2-[1-(5-chloro-4-methylpyrimidin-2-yl)piperidin-4-yl]cyclopropyl}ethoxy)-2-methylpyrimidine-4-carbonitrile]	< 10 nM
Fc1cc(OCC[C@H]2C[C@@H]2C2CCN(c3ncc(Cl)cn3)CC2)ccc1-c1nnc(C2CC2)o1 [Ex 97, 5-chloro-2-[4-((1R,2R)-2-{2-[4-(5-cyclopropyl-1,3,4-oxadiazol-2-yl)-3-fluorophenoxy]ethyl}cyclopropyl)piperidin-1-yl]pyrimidine]	10 to 50 nM
Cc1nnc(-c2ccc(OCC[C@H]3C[C@H]3C3CCN(c4ncc(Cl)cc4Cl)CC3)cc2F)o1 (racemic) [Ex 88, Rac-cis-3,5-dichloro-2-[4-(2-{2-[3-fluoro-4-(5-methyl-1,3,4-oxadiazol-2-yl)phenoxy]ethyl}cyclopropyl)piperidin-1-yl]pyridine]	> 200 nM
Cc1nc(C#N)cc(OCC[C@@H]2C[C@@H]2C2CCN(c3ccc(C(F)(F)F)cn3)CC2)n1 (racemic) [Ex 47, Rac-cis-2-methyl-6-[2-(2-{1-[5-(trifluoromethyl)pyridin-2-yl]piperidin-4-yl}cyclopropyl)ethoxy]pyrimidine-4-carbonitrile]	< 10 nM
Cc1nnnn1-c1ccc(OCCC2CC2C2CCN(c3ncc(Cl)cn3)CC2)cc1 (racemic) [Ex 31b, rac cis-5-chloro-2-[4-(2-{2-[4-(5-methyl-1H-tetrazol-1-yl)phenoxy]ethyl}cyclopropyl)piperidin-1-yl]pyrimidine]	10 to 50 nM
Clc1cnc(N2CCC(C3CC3CCOc3ccc(-n4cnnc4)cc3)CC2)nc1 (racemic) [Ex 26, rac cis-5-chloro-2-[4-(2-{2-[4-(4H-1,2,4-triazol-4-yl)phenoxy]ethyl}cyclopropyl)piperidin-1-yl]pyrimidine]	10 to 50 nM
Clc1cnc(N2CCC(C3CC3CCOc3ccc(-n4cnnn4)cc3)CC2)nc1 (single isomer, unassigned) [Ex 83cS, cis-5-chloro-2-[4-(2-{2-[4-(1H-tetrazol-1-yl)phenoxy]ethyl}cyclopropyl)piperidin-1-yl]pyrimidine]	< 10 nM
N#Cc1nccc(OCC[C@@H]2C[C@@H]2C2CCN(c3ncc(Cl)cn3)CC2)n1 (racemic) [Ex 38, Rac-cis-4-(2-{2-[1-(5-chloropyrimidin-2-yl)piperidin-4-yl]cyclopropyl}ethoxy)pyrimidine-2-carbonitrile]	10 to 50 nM
O=S(=O)(c1ccc(OCCC2CC2C2CCN(c3ncc(Cl)cn3)CC2)cc1)C1CC1 (racemic) [Ex 13, rac cis-5-chloro-2-[4-(2-{2-[4-(cyclopropylsulfonyl)phenoxy]ethyl}cyclopropyl)piperidin-1-yl]pyrimidine]	10 to 50 nM
Cc1nc(C#N)cc(OCC[C@@H]2C[C@@H]2C2CCN(c3ncc(F)cn3)CC2)n1 (racemic) [Ex 53, Rac-cis-6-(2-{2-[1-(5-fluoropyrimidin-2-yl)piperidin-4-yl]cyclopropyl}ethoxy)-2-methylpyrimidine-4-carbonitrile]	< 10 nM
Cc1cnc(N2CCC([C@@H]3C[C@@H]3CCOc3ccc(-c4nnc(C)o4)c(F)c3)CC2)nc1 (racemic) [Ex 84, rac-cis-2-[4-(2-{2-[3-fluoro-4-(5-methyl-1,3,4-oxadiazol-2-yl)phenoxy]ethyl}cyclopropyl)piperidin-1-yl]-5-methylpyrimidine]	< 10 nM
CS(=O)(=O)c1ccc(OCC[C@@H]2C[C@H]2C2CCN(c3ncc(Cl)cn3)CC2)cc1 (racemic) [Ex 90, rac-trans-5-chloro-2-[4-(2-{2-[4-(methylsulfonyl)phenoxy]ethyl}cyclopropyl)piperidin-1-yl]pyrimidine]	10 to 50 nM
Fc1cc(OC[C@@H]2C[C@H]2CC2CCN(c3ncc(Cl)cn3)CC2)ccc1-c1nnc(C2CC2)o1 (racemic) [Ex 111, rac-trans 5-chloro-2-{4-[(2-{[4-(5-cyclopropyl-1,3,4-oxadiazol-2-yl)-3-fluorophenoxy]methyl}cyclopropyl)methyl]piperidin-1-yl}pyrimidine]	10 to 50 nM
Cc1nnc(-c2ccc(OCCC3CC3C3CCN(c4ncc(Cl)cn4)CC3)cc2F)o1 (single isomer, unassigned) [Ex 83 F, cis-5-chloro-2-[4-(2-{2-[3-fluoro-4-(5-methyl-1,3,4-oxadiazol-2-yl)phenoxy]ethyl}cyclopropyl)piperidin-1-yl]pyrimidine]	< 10 nM
Clc1cnc(N2CCC(C3CC3CCOc3ccncc3)CC2)nc1 (racemic) [Ex 92, rac-trans-5-chloro-2-(4-{2-[2-(pyridin-4-yloxy)ethyl]cyclopropyl}piperidin-1-yl)pyrimidine]	50 to 200 nM
N#Cc1ccc(OC[C@@H]2C[C@H]2CC2CCN(c3ncc(Cl)cn3)CC2)cc1F (racemic) [Ex 104, Rac-trans-4-[(2-{[1-(5-chloropyrimidin-2-yl)piperidin-4-yl]methyl}cyclopropyl)methoxy]-2-fluorobenzonitrile]	50 to 200 nM
N#Cc1ccc(OCCC2CC2C2CCN(c3ncc(Cl)cn3)CC2)cc1F (racemic) [Ex 12, rac cis-4-(2-{2-[1-(5-chloropyrimidin-2-yl)piperidin-4-yl)cyclopropyl}ethoxy)-2-fluorobenzonitrile]	10 to 50 nM
N#Cc1ccc(OC[C@@H]2C[C@@H]2CC2CCN(c3ncc(Cl)cn3)CC2)cc1F (racemic) [Ex 119, rac-cis 4-[(2-{[1-(5-chloropyrimidin-2-yl)piperidin-4-yl]methyl}cyclopropyl)methoxy]-2-fluorobenzonitrile]	> 200 nM
Cc1nnc(-c2ccc(OCCC3CC3C3CCN(c4ncc(Cl)cn4)CC3)cc2F)o1 (single isomer, unassigned) [Ex 83 S, cis-5-chloro-2-[4-(2-{2-[3-fluoro-4-(5-methyl-1,3,4-oxadiazol-2-yl)phenoxy]ethyl}cyclopropyl)piperidin-1-yl]pyrimidine]	< 10 nM
Cc1cc(OC[C@@H]2C[C@@H]2CC2CCN(c3ncc(Cl)cn3)CC2)nc(C#N)n1 (racemic) [Ex 118, rac-cis-4-[(2-{[1-(5-chloropyrimidin-2-yl)piperidin-4-yl]methyl}cyclopropyl)methoxy]-6-methylpyrimidine-2-carbonitrile]	10 to 50 nM
Clc1cnc(N2CCC(C3CC3CCOc3ccc(-c4ccn[nH]4)cc3)CC2)nc1 (racemic) [Ex 22, rac cis-5-chloro-2-[4-(2-{2-[4-(1H-pyrazol-3-yl)phenoxy]ethy]}cyclopropyl)piperidin-1-yl]pyrimidine]	10 to 50 nM
CS(=O)(=O)c1ccc(OC[C@H]2C[C@H]2CC2CCN(c3ncc(Cl)cn3)CC2)cc1 (racemic) [Ex 116, rac-cis-5-chloro-2-{-4-[(2-{[4-(methylsulfonyl)phenoxy]methyl}cyclopropyl)methyl]piperidin-1-yl}pyrimidine]	> 200 nM
Cc1nc(C#N)cc(OCCC2CC2C2CCN(c3ncc(Cl)cn3)CC2)n1 (racemic) [Ex 100, rac trans 6-(2-{2-[1-(5-chloropyrimidin-2-yl)piperidin-4-yl]cyclopropyl}ethoxy)-2-methylpyrimidine-4-carbonitrile]	10 to 50 nM
Cc1nnc(-c2ccc(OCCC3CC3C3CCN(c4ncc(Cl)cn4)CC3)cc2)o1 (racemic) [Ex 16, rac cis-5-chloro-2-[4-(2-{2-[4-(5-methyl-1,3.4-oxadiazol-2-yl)phenoxy]ethyl}cyclopropyl)piperidin-1-yl]pyrimidine]	< 10 nM
Fc1cnc(N2CCC(C3CC3CCOc3ccc(-n4ccnn4)cc3)CC2)nc1 (single isomer, unassigned) [Ex 83bF, cis-5-fluoro-2-[4-(2-{2-[4-(1H-1,2,3-triazol-1-yl)phenoxy]ethyl}cyclopropyl)piperidin-1-yl]pyrimidine]	50 to 200 nM
Clc1cnc(N2CCC([C@@H]3C[C@@H]3CCOc3cccnc3)CC2)nc1 (racemic) [Ex 48, Rac-cis-5-chloro-2-(4-{2-[2-(pyridin-3-yloxy)ethyl]cyclopropyl}piperidin-1-yl)pyrimidine]	> 200 nM
Cc1nnn(-c2ccc(OCCC3CC3C3CCN(c4ncc(Cl)cn4)CC3)cc2)n1 (racemic) [Ex 31a, rac cis-5-chloro-2-[4-(2-{2-[4-(5-methyl-2H-tetrazol-2-yl)phenoxy]ethyl}cyclopropyl)piperidin-1-yl]pyrimidine]	< 10 nM

From US8343990B2, “Substituted cyclopropyl compounds, compositions containing such compounds and methods of treatment” (Merck Sharp & Dohme Corp., priority 2008, dated 2013)
